US20160022751A1, “NOVEL COMPOSITION FOR TREATING ALZHEIMER'S DISEASE AND IMPROVING COGNITIVE FUNCTION OF ALZHEIMER'S PATIENTS” (GANGNEUNG-WONJU NATIONAL UNIVERSITY INDUSTRY ACADEMY …, priority 2014, published 2016)

Key:
caveolin1 = assay: Caveolin1 mRNA expression in HMO6 human microglial cells (qPCR); type: cell-based; conditions: Aβ42 (5 μM) and/or Rg3 (2.5 or 5 μg/ml), 24 h (FIG. 15A-B)
Experimental: FIG. 15 is a graph showing a change in the expression of caveolin-1, caveolin-2, clathrin, neprilysin (NEP), insulin-degrading enzyme (IDE) according to treating Aβ and/or ginsenoside Rg3 to HMO6 human microglial cells. HMO6 cells were plated on 35 mm cell culture plates or chamber slides and Aβ42 (5 μM) and/or Rg3 (2.5 or 5 μg/ml) were treated for 24 h. Then, the mRNA expression was determined by quantitative RT-PCR. The expression of caveolin (A-B), clathrin (C) which are endocytosis-related genes and NEP (D) and IDE (E) which are genes encoding Aβ-degrading enzymes were compared depending on the presence or absence of Rg3/Aβ42. The results are shown as mean±SD. * P<0.05, ** P<0.01, *** P<0.001. […]
Total RNA extracts from HMO6 cells or perfused brain tissue were prepared using the Trizol method (Invitrogen). cDNA was synthesized from RNA by reverse transcription of 1 μg total RNA using the Improm-II reverse transcription system (Promega, Wis., USA) and oligo dT primers in a total volume of 20 μl. […] Relative sample expression levels were calculated using Rotor-Gene 6000 Series Software 1.7 and were expressed relative to β-actin for mice or glyceraldehyde 3-phosphate dehydrogenase for HMO6 cells and corrected for between-run variability. Data for the experimental samples are expressed as a percentage of the internal control gene. […]

SRA = assay: In vivo SRA protein expression in brain tissues (western blot); conditions: mice administrated with Rg3 (FIG. 24B)
Description: HMO6 cells were lysed in 1% RIPA buffer containing protease and phosphatase inhibitors (Roche, Mannheim, Germany) and whole-cell lysates were separated on 10% sodium dodecyl sulfate-polyacrylamide gel electrophoresis. After electrophoresis, the proteins were transferred to polyvinylidene fluoride membranes, and the membranes were blocked with 5% skim milk in Tris-buffered saline solution containing 0.1% Tween-20. The membranes were then immunoblotted with primary antibodies, anti-phospho-p38, anti-p38, anti-phospho-ERK, anti-ERK, and anti-f3-actin (Santa Cruz Biotechnology, USA), followed by incubation with horseradish peroxidase-conjugated anti-rabbit or anti-mouse secondary antibodies (Stressgen, USA). Blots were developed using an enhanced chemiluminescent solution (Thermo, USA).
The present inventor investigated whether ginsenoside Rg3 translocated to brain tissues contributes to the uptake and degradation of Aβ42 in order to determine whether in vitro experimental results described in the Example 5 can be applied to in vivo condition in the same manner. Specifically, the expression level of SRA and SRB gene within brain tissues of mice administrated with Rg3 was determined using the RT-PCR analysis described in the Example 5-4 (FIG. 24A) and the western blot analysis described in the Example 5-6 (FIG. 24B). […]

IDE = IDE mRNA expression in HMO6 human microglial cells (qPCR); type: cell-based
Experimental: HMO6 human microglial cell line was kindly provided by Dr. SU Kim (Chung-Ang University, Korea). HMO6 cells were grown in Dulbecco's Modified Eagle's Medium (DMEM) (Hyclone, USA) supplemented with 10% fetal bovine serum, 100 U/ml penicillin, and 100 μg/ml streptomycin (Invitrogen, USA). Cultures were maintained under 5% CO2 at 37° C. in tissue culture flasks. Cells were grown to >90% confluency and subjected to no more than 20 cell passages. Medium was changed every 2-3 days. Subconfluent cells were harvested and seeded at a density of 5×10^5 cells or 5×10^6 cells in poly-L-lysine-coated 35-mm or 60-mm culture plates. After 24 h of plating, the medium was replaced with serum-free DMEM, washed once with phosphate buffered saline (PBS), and treated with Rg3 or Aβ42.
Total RNA extracts from HMO6 cells or perfused brain tissue were prepared using the Trizol method (Invitrogen). cDNA was synthesized from RNA by reverse transcription of 1 μg total RNA using the Improm-II reverse transcription system (Promega, Wis., USA) and oligo dT primers in a total volume of 20 μl. PCR amplification was performed using the primers listed in Table 1 (Bioneer, Korea). qPCR reactions were run on a Rotor-Gene 6000 (Corbett Research, Sydney, Australia) using a SensiMix™ SYBR Hi-ROX Kit (Bioline, UK) in 20 μl reaction mixtures. Each real-time-PCR master mix contained 10 μl 2× enzyme master mix, 7 μl RNase free water, 1 μl of each primer (10 pM each), and 1 μl diluted template. The PCR was performed with an initial pre-incubation step for 15 min at 95° C., followed by 45 cycles of 95° C. for 15 s, annealing at 52° C. for 15 s, and extension at 72° C. for 10 s. […] Relative sample expression levels were calculated using Rotor-Gene 6000 Series Software 1.7 and were expressed relative to β-actin for mice or glyceraldehyde 3-phosphate dehydrogenase for HMO6 cells and corrected for between-run variability. Data for the experimental samples are expressed as a percentage of the internal control gene. […]

[1] = Rg3-treated HMO6 cells (FIG. 14)

For CC(C)=CCC[C@](C)(O)[C@H]1CC[C@]2(C)[C@@H]1[C@H](O)C[C@@H]1[C@@]3(C)CC[C@H](O[C@@H]4O[C@H](CO)[C@@H](O)[C@H](O)[C@H]4O[C@@H]4O[C@H](CO)[C@@H](O)[C@H](O)[C@H]4O)C(C)(C)[C@@H]3CC[C@]12C [ginsenoside Rg3], the “caveolin1-mediated Aβ42 endocytosis (caveolin mRNA)” value (caveolin1) was “promoted Aβ42 uptake into HMO6 cells via a caveolin1 and clathrin-mediated endocytic mechanism”, the “expression of SRA protein in brain tissues” value (SRA) was “increased” and the “IDE mRNA” value (IDE; HMO6 cells, Aβ42 (5 μM) and/or Rg3 (2.5 or 5 μg/ml), 24 h (FIG. 15E)) was “increased significantly”. The “IDE expression versus untreated control group” value (IDE; [1]) was “about six-fold higher” and the “IDE mRNA expression” value (IDE; [1]) was “dose-dependently increased”.
